Here are results for three compounds from article PMC5489766 (Journal of Ginseng Research, 2016).

Data set [1] addresses T1, HSA (Homo sapiens, UniProt P02768). Briefly: Fluorescence quenching of HSA by G-Rh2. The data set is classed as binding. To be noted: for KSV: HSA 1 μM, pH 7.4; for Kd: K (binding constant).
Data set [2] relates to PARP cleavage in HepG2 cells. The data set is described as follows: Immunoblotting of PARP cleavage. The data set is classed as cell-based. Conditions: HepG2, 7.5 μg/mL, BSA or bovine serum, 4 h. On the technique in general: In western blotting, separated proteins are transferred to a membrane and probed.
The conditions of data set [3]: general statement; cited from earlier work.
Data set [4] deals with T2, BSA (Bos taurus, UniProt P02769). Briefly: Fluorescence quenching of BSA by G-Rh2. It counts as binding, bovine. To be noted: for KSV: BSA 1 μM, pH 7.4; for Kd: K (binding constant).
Another data set concerns HepG2 cells. The data set is described as follows: MTT assay, cytotoxic activity with or without serum albumin. The data set is classed as cell-based. Conditions: HepG2, 7.5 μg/mL, 48 h. Background: Formazan colour is commonly taken as a measure of viable cells.
Data set [5] deals with T2, BSA. Briefly: UV-Vis absorption spectra of BSA with G-Rh2. It counts as binding, bovine. Conditions: BSA 25 μM, G-Rh2 50 μM, 298K, pH7.4.
In data set [6] the target is T1, HSA. The data set is described as follows: UV-Vis absorption spectra of HSA with G-Rh2. The data set is classed as binding. To be noted: HSA 25 μM, G-Rh2 50 μM, 298K, pH7.4.

SMILES strings stand for the structures.

T2 sequence (P02769 25-607): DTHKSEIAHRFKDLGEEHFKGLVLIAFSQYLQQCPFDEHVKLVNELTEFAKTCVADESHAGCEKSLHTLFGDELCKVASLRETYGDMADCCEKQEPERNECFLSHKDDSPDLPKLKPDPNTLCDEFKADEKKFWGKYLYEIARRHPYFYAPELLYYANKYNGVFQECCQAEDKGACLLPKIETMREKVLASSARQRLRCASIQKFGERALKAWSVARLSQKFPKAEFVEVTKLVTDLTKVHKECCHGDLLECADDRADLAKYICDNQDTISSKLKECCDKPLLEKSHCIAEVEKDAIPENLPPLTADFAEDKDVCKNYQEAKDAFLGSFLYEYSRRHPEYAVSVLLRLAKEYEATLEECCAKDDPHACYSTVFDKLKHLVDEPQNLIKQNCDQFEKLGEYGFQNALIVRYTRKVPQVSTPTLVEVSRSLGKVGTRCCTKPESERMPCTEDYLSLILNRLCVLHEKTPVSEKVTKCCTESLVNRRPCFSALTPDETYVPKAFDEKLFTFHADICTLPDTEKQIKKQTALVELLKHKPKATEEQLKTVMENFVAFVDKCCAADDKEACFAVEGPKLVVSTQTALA
T1 sequence (P02768 25-609): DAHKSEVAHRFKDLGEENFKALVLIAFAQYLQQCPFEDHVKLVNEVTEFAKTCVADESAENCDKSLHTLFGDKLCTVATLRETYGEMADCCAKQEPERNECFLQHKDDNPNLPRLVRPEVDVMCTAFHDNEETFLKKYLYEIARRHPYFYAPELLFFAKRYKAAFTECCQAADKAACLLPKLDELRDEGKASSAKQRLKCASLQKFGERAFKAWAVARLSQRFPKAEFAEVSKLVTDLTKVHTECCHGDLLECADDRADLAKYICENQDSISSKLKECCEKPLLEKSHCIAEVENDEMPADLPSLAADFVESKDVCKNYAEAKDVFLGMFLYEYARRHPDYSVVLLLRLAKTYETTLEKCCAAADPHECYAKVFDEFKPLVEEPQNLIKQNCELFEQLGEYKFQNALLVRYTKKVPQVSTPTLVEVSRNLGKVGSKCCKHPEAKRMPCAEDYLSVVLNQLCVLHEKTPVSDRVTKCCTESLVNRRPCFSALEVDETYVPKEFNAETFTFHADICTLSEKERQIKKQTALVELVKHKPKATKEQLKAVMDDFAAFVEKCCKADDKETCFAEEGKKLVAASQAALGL

`CC(C)=CCC[C@](C)(O)[C@H]1CC[C@]2(C)[C@@H]1[C@H](O)C[C@@H]1[C@@]3(C)CC[C@H](O[C@@H]4O[C@H](CO)[C@@H](O)[C@H](O)[C@H]4O)C(C)(C)[C@@H]3CC[C@]12C` [(20R) G-Rh2, Ginsenoside Rh2]: the KSV at HSA [1] (298 K) was 4.5120 10^4 M^−1; at HSA [1] (303 K), 6.9016 10^4 M^−1; at HSA [1] (308 K), 7.2751 10^4 M^−1. Moreover, the kq was 4.5120 10^12 M^−1 s^−1 on HSA [1] (HSA, 298 K); 6.9016 10^12 M^−1 s^−1 at HSA [1] (HSA, 303 K); 7.2751 10^12 M^−1 s^−1 at HSA [1] (HSA, 308 K). Also, the “n (number of binding sites)” value is recorded as 1.131 at HSA [1] (HSA, 298 K); 1.0626 at HSA [1] (HSA, 303 K); 1.0284 at HSA [1] (HSA, 308 K). Besides, the Kd – broadly, a measure of binding affinity in units of concentration – is 4.85 µM on HSA [1] (HSA, 298 K); 6.89 µM at HSA [1] (HSA, 303 K); 11.5 µM at HSA [1] (HSA, 308 K).
As to `CC(C)=CCC[C@](C)(O)[C@H]1CC[C@]2(C)[C@@H]1[C@H](O)C[C@@H]1[C@@]3(C)CC[C@H](O[C@@H]4O[C@H](CO)[C@@H](O)[C@H](O)[C@H]4O)C(C)(C)[C@@H]3CC[C@]12C` [(20S) G-Rh2, Ginsenoside Rh2], the PARP cleavage result in data set [2] (with 1.68mg/mL albumin by adding HSA) is reported as “totally inhibited PARP cleavage”; in data set [2] (without HSA) it was “caused the cleavage of poly-adenosine diphosphate-ribose polymerase (PARP)”. Besides, in data set [3], the water solubility entry is listed as “very low”. For the same compound, the KSV is given as 4.9578 10^4 M^−1 on HSA [1] (298 K); 6.5117 10^4 M^−1 on HSA [1] (303 K); 7.2510 10^4 M^−1 at HSA [1] (308 K); 7.3470 10^4 M^−1 at BSA [4] (298 K); 11.6703 10^4 M^−1 on BSA [4] (303 K); 9.2848 10^4 M^−1 on BSA [4] (308 K). The kq was 4.9578 10^12 M^−1 s^−1 at HSA [1] (HSA, 298 K); 6.5117 10^12 M^−1 s^−1 on HSA [1] (HSA, 303 K); 7.2510 10^12 M^−1 s^−1 on HSA [1] (HSA, 308 K); 7.3470 10^12 M^−1 s^−1 at BSA [4] (BSA, 298 K); 11.6703 10^12 M^−1 s^−1 at BSA [4] (BSA, 303 K); 9.2848 10^12 M^−1 s^−1 at BSA [4] (BSA, 308 K). Besides, the “n (number of binding sites)” value came out at 1.2027 on HSA [1] (HSA, 298 K); 1.1449 on HSA [1] (HSA, 303 K); 1.0786 on HSA [1] (HSA, 308 K); 1.1329 at BSA [4] (BSA, 298 K); 1.0192 on BSA [4] (BSA, 303 K); 0.9702 on BSA [4] (BSA, 308 K). The “number of binding site” value on HSA [1] (HSA, temperature not stated, listed as (20S)-Rh2) was determined as 1; on BSA [4] (BSA, temperature not stated (abstract)), 1. Also, the equilibrium dissociation constant (Kd) at HSA [1] (HSA, 298 K) was 1.83 µM; on HSA [1] (HSA, 303 K) it was 2.86 µM; on HSA [1] (HSA, 308 K), 5.39 µM; on BSA [4] (BSA, 298 K), 2.77 µM; on BSA [4] (BSA, 303 K), 7.01 µM; on BSA [4] (BSA, 308 K), 15.5 µM. For the same compound, the Cell viability result in the data set on HepG2 cells (increased concentration of albumin by adding HSA, BSA or bovine serum) is “significantly increased in an albumin-dose-dependent manner”; in the data set with HepG2 cells (without SA), “killed almost all cells”.
For `CC(C)=CCC[C@](C)(O)[C@H]1CC[C@]2(C)[C@@H]1[C@H](O)C[C@@H]1[C@@]3(C)CC[C@H](O[C@@H]4O[C@H](CO)[C@@H](O)[C@H](O)[C@H]4O)C(C)(C)[C@@H]3CC[C@]12C` [G-Rh2, Ginsenoside Rh2], the “UV-Vis absorption of protein on adding G-Rh2” value on BSA [5] and on HSA [6] was “significantly increased with a slight blue shift of the maximum absorption wavelength” each time.
